Where two headings read alike, the source gives them in different places.
Assays:
human matriptase-2 [1] = molecular target: T1, human matriptase-2 (Homo sapiens, UniProt Q8IU80); experiment: Human matriptase-2 inhibition, fluorogenic substrate Boc-Gln-Ala-Arg-AMC, conditioned medium of HEK-MT2 cells; assay type: biochemical; conditions: for matriptase-2 inhibitory activity in words: screening at single inhibitor concentration of 40 µM; for IC50: substrate 40 µM, pH 8.0, 37 °C
T1 construct: The conditioned medium of HEK-MT2 cells was used as a source of matriptase-2 activity; expressed in transfected cells; host or cells: HEK-MT2 cells (conditioned medium, collected and concentrated)
T1 sequence (Q8IU80 577-811 limits assumed): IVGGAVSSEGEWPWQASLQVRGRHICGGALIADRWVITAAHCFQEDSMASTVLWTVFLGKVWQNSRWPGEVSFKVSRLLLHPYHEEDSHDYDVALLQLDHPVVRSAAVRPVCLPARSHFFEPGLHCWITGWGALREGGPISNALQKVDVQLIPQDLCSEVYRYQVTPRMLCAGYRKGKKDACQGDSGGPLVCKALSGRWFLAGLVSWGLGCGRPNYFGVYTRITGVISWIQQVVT
T1 sequence (Q8IU80 438-576 partner limits assumed): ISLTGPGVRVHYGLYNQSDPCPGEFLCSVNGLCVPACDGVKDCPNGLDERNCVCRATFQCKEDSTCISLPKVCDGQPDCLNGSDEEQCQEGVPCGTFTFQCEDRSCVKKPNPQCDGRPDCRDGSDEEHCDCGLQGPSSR
Experimental: The conditioned medium of HEK-MT2 cells was used as a source of matriptase-2 activity and assay conditions were as follows. Assay buffer was 50 mM Tris–HCl, 150 mM NaCl, pH 8.0. The conditioned medium was collected and concentrated, and aliquots of the supernatant were stored at −20 °C. After thawing, it was diluted with assay buffer (1:10 or 1:20 depending on the enzyme activity) and kept at 0 °C not longer than 8 h. The assays were performed at a FLUOstar OPTIMA PlateReader (BMG Labtech, Ortenberg, Germany). A 10 mM stock solution of the fluorogenic substrate Boc-Gln-Ala-Arg-AMC (Bachem, Bubendorf, Switzerland) in DMSO was diluted with assay buffer. The final concentration of the substrate was 40 µM and of DMSO was 6%. The substrate concentration of 40 µM refers to 1.24 × Km. Into each well containing 163.8 µL buffer, 11.2 µL of an inhibitor solution in DMSO and 10 µL of a substrate solution (800 µM) were added and thoroughly mixed. At 37 °C the reaction was initiated by adding 15 µL of diluted conditioned medium and followed over 400 s. All measurements were performed in duplicate with a single inhibitor concentration of 40 µM. Active inhibitors were investigated in duplicate with five different concentrations. Benzamidine hydrochloride was purchased from Acros Organics (Geel, Belgium).
Progress curves were analyzed by linear regression. IC50 values were determined by nonlinear regression using the equation vs = v0/(1 + [I]/IC50), where vs is the steady-state rate, v0 is the rate in the absence of the inhibitor, and [I] is the inhibitor concentration. Standard errors of the mean (SEM) values refer to this nonlinear regression.

thrombin = conditions: cited from earlier work; for thrombin inhibition relative to trypsin and factor Xa, in words: ref [39],[41]
human matriptase-2 [2] = molecular target: T1, human matriptase-2; experiment: Human matriptase-2 inhibition, fluorogenic substrate Boc-Gln-Ala-Arg-AMC, conditioned medium of HEK-MT2 cells; assay type: biochemical; conditions: substrate concentrations of 20, 30, 40, 50 and 60 µM
[3] = read-out: IC50 value for matriptase-2 inhibition
[4] = Table 1, 4H-3,1-benzothiazin-4-ones, values with SEM: duplicate, five inhibitor concentrations, limits: duplicate, single inhibitor concentration of 40 µM, read-out: IC50 (µM) ± SEM
[5] = Table 2, 2,3-dihydro-1,4-benzodioxines and 3,4-dihydro-2H-1,4-benzoxazines, values with SEM: duplicate, five inhibitor concentrations, limits: duplicate, single inhibitor concentration of 40 µM, read-out: IC50 (µM) ± SEM

Structure (SMILES)	matriptase-2 inhibitory activity in words (human matriptase-2 [1])	IC50 (human matriptase-2 [1]; [4])	IC50 (human matriptase-2 [1]; [5])	also measured
N=C(N)c1ccccc1 [Benzamidine, reference compound]	lack of inhibitory activity	–	–	IC50 (human matriptase-2 [1]; [3]): > 400 µM
CN(C)CCNC(=O)c1ccc2nc(NC(=O)c3ccccc3)sc(=O)c2c1 [Compound 1]	–	148 ± 28 µM	–	–
O=C(Nc1nc2ccc(C(=O)N3CCN(Cc4ccccc4)CC3)cc2c(=O)s1)c1ccccc1 [Compound 5]	inactive	> 160 µM	–	–
CN1CCN(C(=O)c2ccc3c(=O)sc(NC(=O)c4ccccc4)nc3c2)CC1 [Compound 4]	–	> 160 µM	–	–
CCOC(=O)C1CCN(c2ccc(N3C[C@@H](CNCc4ccc(C(=N)N)cc4)OC3=O)cc2)CC1 [(R)-24]	inactive	–	> 40 µM	–
CCOC(=O)[C@H](CNC(=O)CN1C(=O)COc2cc(NC(=O)c3ccc(C(=N)N)cc3)ccc21)NS(=O)(=O)c1ccc(C)cc1 [Compound 23]	–	–	20.5 ± 2 µM	–
CN1CCN(C(=O)c2ccc(C(=O)Nc3nc4ccccc4c(=O)s3)cc2)CC1 [Compound 8]	inactive	> 160 µM	–	–
O=C(Nc1nc2cc(C(=O)N3CCN(Cc4ccccc4)CC3)ccc2c(=O)s1)c1ccccc1 [Compound 6]	–	> 160 µM	–	–
CCOC(=O)C(=O)N(Cc1ccccc1)c1ccc2c(c1)O[C@@H](COc1ccc(C(=N)N)cc1)CO2 [(S)-12, (S)-Ethyl 2-(benzyl(3-((4-carbamidoylphenoxy)methyl)-2,3-dihydrobenzo[b][1,4]dioxin-6-yl)amino)-2-oxoacetate]	–	–	8.47 ± 0.76 µM	thrombin inhibition in words (thrombin; ref [38]): highly potent; IC50 (human matriptase-2 [1]; [3]): < 10 µM
O=C(Nc1nc2ccccc2c(=O)s1)c1ccc(C(=O)N2CCN(Cc3ccccc3)CC2)cc1 [Compound 9]	inactive	> 160 µM	–	–
N=C(N)c1ccc(CN2C(=O)COc3cc(NC(=O)[C@H](N)Cc4ccccc4)ccc32)cc1 [Compound 22]	–	–	30.9 ± 3.4 µM	–
CN(C)CCNC(=O)c1ccc2c(=O)sc(NC(=O)c3ccccc3)nc2c1 [Compound 2]	loss of activity	> 160 µM	–	–
NCc1ccc(C(=O)Nc2nc3ccccc3c(=O)s2)cc1 [Compound 7]	active	119 ± 9 µM	–	–
CN1C(=O)C(OCc2ccc(C(=N)N)cc2)Oc2cc(C(=O)Nc3ccccc3)ccc21 (stereo not shown) [Compound 21]	–	–	42.6 ± 4.7 µM	–
COc1ccc2cc(S(=O)(=O)NN(Cc3cccc(C(=N)N)c3)C(=O)N(C)C3CCCC3)ccc2c1 [Compound 25]	inactive	–	> 40 µM	–
CN1CCN(C(=O)c2ccc3nc(NC(=O)c4ccccc4)sc(=O)c3c2)CC1 [Compound 3]	–	> 160 µM	–	–

Further lines, with some results ahead:

matriptase-2 inhibitory activity in words (human matriptase-2 [1])	IC50 (human matriptase-2 [1]; [4])	IC50 (human matriptase-2 [1]; [5])	Structure (SMILES)	also measured
–	–	13.6 ± 2.31 µM	CN1CC(C)(COc2ccc(C(=N)N)cc2)Oc2cc(N(CC(=O)O)Cc3ccc(F)cc3)ccc21 (stereo not shown) [Compound 16]	thrombin inhibition relative to trypsin and factor Xa, in words (thrombin): inhibited thrombin better than trypsin and factor Xa
–	–	33.6 ± 1.1 µM	N=C(N)c1ccc(OC[C@@H]2COc3cc(N(Cc4ccccc4)C(=O)C(=O)O)ccc3O2)cc1 [(R)-11]	–
–	–	35.8 ± 1.1 µM	CN1CC(C)(COc2ccc(C(=N)N)cc2)Oc2ccc(N(Cc3cc(F)cc(F)c3)C(=O)C(=O)O)cc21 (stereo not shown) [Compound 14]	–
–	–	11.2 ± 1.61 µM	CN1CC(C)(COc2ccc(C(=N)N)cc2)Oc2ccc(N(CC(=O)O)Cc3ccc(F)cc3)cc21 (stereo not shown) [Compound 17]	–
–	–	27.3 ± 2 µM	N=C(N)c1ccc(OC[C@@H]2COc3ccc(N(Cc4ccccc4)C(=O)C(=O)O)cc3O2)cc1 [(R)-10]	–
moderately active	–	38.8 ± 3.14 µM	CN1CC(C)(COc2ccc(C(=N)N)cc2)Oc2cc(NC(=O)CCC(=O)O)ccc21 (stereo not shown) [Compound 19]	type of inhibition (Lineweaver-Burk plot) (human matriptase-2 [2]): mixed type of inhibition
moderately active	–	31.4 ± 3.6 µM	COC(=O)C(Cc1ccccc1)C(=O)Nc1ccc2c(c1)OC(C)(COc1ccc(C(=N)N)cc1)CN2C (stereo not shown) [Compound 20]	–
–	–	16.7 ± 1.7 µM	N=C(N)c1ccc(OC[C@H]2COc3ccc(N(Cc4ccccc4)C(=O)C(=O)O)cc3O2)cc1 [(S)-10]	–
–	–	25.8 ± 4 µM	CN1CC(C)(COc2ccc(C(=N)N)cc2)Oc2cc(N(CC(=O)O)Cc3cc(F)cc(F)c3)ccc21 (stereo not shown) [Compound 15]	thrombin inhibition relative to trypsin and factor Xa, in words (thrombin): inhibited thrombin better than trypsin and factor Xa
inactive	–	> 40 µM	CN1CC(C)(COc2ccc(C(=N)N)cc2)Oc2cc(N(Cc3ccc(F)cc3)C(=O)C(=O)O)ccc21 (stereo not shown) [Compound 13]	thrombin inhibition relative to trypsin and factor Xa, in words (thrombin): inhibited thrombin better than trypsin and factor Xa; thrombin inhibition in words (thrombin; ref [39]): highly active
–	–	29.8 ± 1.6 µM	N=C(N)c1ccc(OC[C@H]2COc3cc(N(Cc4ccccc4)C(=O)C(=O)O)ccc3O2)cc1 [(S)-11]	–
–	–	31.6 ± 2.69 µM	CCOC(=O)CN(Cc1ccc(F)cc1)c1ccc2c(c1)OC(C)(COc1ccc(C(=N)N)cc1)CN2C (stereo not shown) [Compound 18]	–
